PMC8248988, “A signal capture and proofreading mechanism for the KDEL-receptor explains selectivity and dynamic range in ER retrieval” (eLife, 2021)

Target: T1, human KDELR1 N54R (Homo sapiens, UniProt P24390, N54R)
T1 construct: expressed in transfected cells; host or cells: COS-7
Assay: ER retrieval assay, KDELR1 N54R-GFP
Assay type: cell-based
Conditions: COS-7 cells
Excerpt: To create KDELR1-GFP and KDELR2-GFP, the reading frames for Homo sapiens KDELR1 (Uniprot: P24390) and KDELR2 (Uniprot: P33947) were cloned into the pEF5/FRT low level mammalian expression vector with a C-terminal 20 amino acid linker made up of 5 copies of Gly-Ser-Ser-Ser followed by GFP. Specific point mutations were introduced using the Quickchange protocol (Stratagene) and are described in the key resources table and figures. To create the mScarlet-KDEL^sec ligand construct, mScarlet with an N-terminal hGH signal peptide and the 16 C-terminal residues of human BiP at its C-terminus, containing the KDEL signal, was cloned into the pcDNA3.1 vector. […] The Golgi marker protein TGN46 was detected by antibody (sheep anti-TGN46 AHP500G; AbD Serotec) and an Alexa 647 conjugated secondary anti-sheep secondary (A-21448, Invitrogen). In Figure 1d and e, endogenous KDELR was detected by antibody (mouse anti-KDELR ADI-VAA-PT048; Enzo Life Sciences) and Alexa 488 conjugated anti-mouse secondary antibody (A-21202, Invitrogen). For retrieval assays in other figures, KDELR-GFP fusion proteins were directly detected by fluorescence. The mScarlet-xDEL fusion proteins were directly detected by fluorescence. […] The fraction of KDEL receptor in the Golgi apparatus was calculated by dividing the Golgi signal by the total cell signal. […]

T1 sequence (P24390 whole entry N54R): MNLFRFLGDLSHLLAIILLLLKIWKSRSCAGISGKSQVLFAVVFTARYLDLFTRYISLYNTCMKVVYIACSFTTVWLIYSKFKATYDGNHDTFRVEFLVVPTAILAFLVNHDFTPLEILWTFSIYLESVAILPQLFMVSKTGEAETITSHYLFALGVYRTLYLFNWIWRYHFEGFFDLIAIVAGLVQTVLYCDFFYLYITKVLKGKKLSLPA

## ADEL [pcDNA3.1 hGHss-mScarlet-H. sapiens BiP639-654K651A (ADEL^SEC), secreted mScarlet fusion with human BiP C-terminus, ADEL signal]
  ligand-induced receptor retrieval to the ER (in words): did not result in ADEL or DDEL recognition
